Values after ≈ are worked out from the molar mass of the structure shown. Counter-ions that a name gives are not always drawn. Like-named read-outs stand apart in the source and are kept apart here.
Experiments:
[1] = tested on: HSV-2; assay: HSV-2 plaque assay in Vero E6 cells with EF eluants; type: cell-based
Experimental: Initially, experiments were undertaken to determine the in vitro efficacy of unmodified EFs that encapsulated antivirals (ACV and TDF) or are surface-modified with GRFT, against HSV-2 infection. […] The top row of each plate contained cells that were incubated with blank PLGA or PLCL EFs. […] After infection, cells were incubated with IgG to neutralize free HSV-2, and EF eluants were administered to Vero E6 cells. Appropriate controls of: [no treatment/no virus], [no treatment/virus], [blank PLGA or PLCL EFs, virus], and [free ACV, virus] were conducted. […] Similarly, fibers were assessed after 28 days to ensure bioactivity after one month in SVF. […] Only one of the three IC50 curves is shown for each in FIG. 13 for purposes of brevity.

[2] = tested on: HIV-1; assay: Env-pseudotyped virus infectivity assay of TDF EFs in TZM-bl cells; type: cell-based; conditions: EFs given 1 and 24 hr before infection
Experimental: A reporter gene expression Env-pseudotyped virus infectivity assay was used, as described previously, to measure the HIV-1 antiviral activity of the TDF PLGA and PLCL EFs. Antiviral activity was measured as a reduction in firefly Luciferase (Luc) reporter gene expression after administration of different EF concentrations 1 and 24 hr before a single round of infection in TZM-bl cells (i.e., the engineered HeLa cell clone that stably expresses CD4, CCR5, and CXCR4 receptors and contains HIV-1 Tat-regulated reporter genes for firefly luciferase and B-galactosidase). One set of 8 control wells received only cells plus virus (virus control), and another set of 8 wells received cells only (background control). After 48 hr incubation, culture medium was removed from each well, an equal volume of Bright-Glo™ reagent was added, and luminescence was measured. The EC50 was determined as the TDF-EF concentration that caused a 50% reduction in RLU relative to virus control wells after subtraction of background RLU (FIG. 14).

[3] = tested on: HIV-1 pseudovirus (CCR5-using clade A strain Q769.h5); assay: Env-pseudotyped virus infectivity assay in TZM-bl cells (luciferase); type: cell-based; conditions: similar administration durations
From the text: Materials. Carboxyl-terminated 50:50 poly(lactic-co-glycolic acid) (PLGA, 0.55-0.75 dL/g, 31-57 k MW) was purchased from Lactel Absorbable Polymers (Cupertino, Calif.). Dichloromethane (DCM), dimethyl sulfoxide (DMSO), and the MTT assay kit were obtained from Sigma Aldrich (St Louis, Mo.). 1,1,1,3,3,3-hexafluoro-2-propanol (HFIP) was obtained from Fisher Scientific (Pittsburgh, Pa.). GRFT (MW 12.7 kDa) was produced in Nicotiana benthamiana as previously reported. Fetal bovine serum (FBS) and antibiotics (penicillin/streptomycin) were purchased from VWR. Dulbecco's modified Eagle's medium (DMEM) and keratinocyte serum-free medium were purchased from Invitrogen. The EDC-NHS and enzyme-linked immunosorbent assay (ELISA) kits were purchased from ThermoFisher. Simulated vaginal fluid (SVF) was prepared as described previously. […]
Cell lines. […] Vaginal keratinocyte, VK2/E6E7 (VK2); ectocervical, Ect1/E6E7 (Ect1); and endocervical, End1/E6E7 (End1) cell lines, obtained from ATCC, were evaluated in cytotoxicity experiments. […]
In vitro antiviral activity of GRFT-EFs. […] The anti-HIV activity of the GRFT-EFs was measured as a reduction in firefly luciferase (Luc) reporter gene expression in the presence of GRFT-EFs compared to unmodified EFs after a single round of infection in TZM-bl cells. […]

[4] = tested on: HIV-1BaL; assay: HIV-1 infection of polarized ectocervical tissue explants; type: cell-based, human
[5] = tested on: HIV-1 pseudovirus (CCR5-using clade A strain Q769.h5); conditions: same virus strain (Q769.h5); cited from earlier work
[6] = tested on: HIV-1 isolates; conditions: most HIV-1 isolates; cited from earlier work
[7] = tested on: HSV-2; conditions: in vitro; read-out: cell-dependent EC50; cited from earlier work
[8] = tested on: HSV-2; conditions: in vivo; cited from earlier work
[9] = tested on: HIV-1-enveloped pseudovirus; conditions: subcutaneous administration in mice; cited from earlier work

With `Nc1nc2c(ncn2COCCO)c(=O)[nH]1` [free ACV, acyclovir] the IC50 ([1]; Human alphaherpesvirus 2, Vero C1008, 72 h, fiber eluant collected after 3 days, read-out: average IC50) was 0.287 µg/mL (≈ 1.27 µM), the IC50 ([1]; Human alphaherpesvirus 2, Vero C1008, 672 h, after 28 days in SVF, read-out: IC50) was 0.293 µg/mL (≈ 1.3 µM) and the IC50 ([1]; Human alphaherpesvirus 2, Vero C1008, eluant released between 21 and 28 days, read-out: IC50) was 0.293 µg/mL (≈ 1.3 µM).
For `CC(C)OC(=O)OCOP(=O)(CO[C@H](C)Cn1cnc2c(N)ncnc21)OCOC(=O)OC(C)C` [free TDF, tenofovir disoproxil fumarate], the “protection against HIV-1” value [2] was “complete protection against HIV-1”.
For griffithsin [free GRFT], the “IC50 of free GRFT” value [3] was 233±2.7 ng GRFT/mL, the “block of HIV-1 infection in ectocervical explants” value [4] was “blocks HIV-1 infection” and the “concentration down to which HIV-1 infection was blocked” value ([4]; ectocervical tissue, 10^4 TCID50 HIV-1BaL overnight, 21 days culture) was 10 µM. For the same compound, the “previous literature measurement for free GRFT” value [5] was 157 ng/mL, the “in vitro inhibitory activity (EC50)” value [6] was “mid-pM to low-nM range” and the EC50 [7] was 2.3 to 143 µM. For the same compound, the HSV-2 cell entry [8] was “modestly inhibited”, the HSV-2 cell-to-cell spread [8] was “completely inhibiting” and the “antiviral activity of serum from treated animals” value [9] was “retained antiviral activity”.
